Reference: ChEMBL document CHEMBL4308841, “Synthesis, in vitro antiproliferative activity, and kinase inhibitory effects of pyrazole-containing diarylureas and diarylamides” (Eur J Med Chem, 2018)

test system: Hs-578T; test: Growth inhibition of human Hs578T cells assessed as cell growth at 10 uM incubated for 48 hrs by sulforhodamine B assay relative to control; type: functional; details: read-out: Activity

Structure (SMILES)	growth at 10 µM
COc1cc(Cl)cc(-c2nn(-c3cccc(NC(=O)c4ccc(Cl)c(Cl)c4)c3)cc2-c2ccncc2)c1	63.6%

test system: SNB-75; test: Growth inhibition of human SNB75 cells assessed as cell growth at 10 uM incubated for 48 hrs by sulforhodamine B assay relative to control; type: functional; details: SNB-75, 48 h, read-out: Activity

Structure (SMILES)	growth at 10 µM
COc1cc(Cl)cc(-c2nn(-c3cccc(NC(=O)c4ccc(Cl)c(Cl)c4)c3)cc2-c2ccncc2)c1	50.6%

test system: SNB-19; test: Growth inhibition of human SNB19 cells assessed as cell growth at 10 uM incubated for 48 hrs by sulforhodamine B assay relative to control; type: functional; details: SNB-19, 48 h, read-out: Activity

Structure (SMILES)	growth at 10 µM
COc1cc(Cl)cc(-c2nn(-c3cccc(NC(=O)c4ccc(Cl)c(Cl)c4)c3)cc2-c2ccncc2)c1	71.5%

test system: T47D; test: Growth inhibition of human T47D cells assessed as cell growth at 10 uM incubated for 48 hrs by sulforhodamine B assay relative to control; type: functional; details: read-out: Activity

Structure (SMILES)	growth at 10 µM
COc1cc(Cl)cc(-c2nn(-c3cccc(NC(=O)c4ccc(Cl)c(Cl)c4)c3)cc2-c2ccncc2)c1	63.2%

test system: K562; test: Growth inhibition of human K562 cells assessed as cell growth at 10 uM incubated for 48 hrs by sulforhodamine B assay relative to control; type: functional; details: K562, 48 h, read-out: Activity

Structure (SMILES)	growth at 10 µM
COc1cc(Cl)cc(-c2nn(-c3cccc(NC(=O)c4ccc(Cl)c(Cl)c4)c3)cc2-c2ccncc2)c1	46.4%

test system: MDA-MB-231; test: Growth inhibition of human MDA-MB-231 cells assessed as cell growth at 10 uM incubated for 48 hrs by sulforhodamine B assay relative to control; type: functional; details: MDA-MB-231, 48 h, read-out: Activity

Structure (SMILES)	growth at 10 µM
COc1cc(Cl)cc(-c2nn(-c3cccc(NC(=O)c4ccc(Cl)c(Cl)c4)c3)cc2-c2ccncc2)c1	33.9%

test system: SW-620; test: Growth inhibition of human SW620 cells assessed as cell growth at 10 uM incubated for 48 hrs by sulforhodamine B assay relative to control; type: functional; details: SW-620, 48 h, read-out: Activity

Structure (SMILES)	growth at 10 µM
COc1cc(Cl)cc(-c2nn(-c3cccc(NC(=O)c4ccc(Cl)c(Cl)c4)c3)cc2-c2ccncc2)c1	84.2%

test system: HL-60(TB); test: Growth inhibition of human HL-60(TB) cells assessed as cell growth at 10 uM incubated for 48 hrs by sulforhodamine B assay relative to control; type: functional; details: HL-60, 48 h, read-out: Activity

Structure (SMILES)	growth at 10 µM
COc1cc(Cl)cc(-c2nn(-c3cccc(NC(=O)c4ccc(Cl)c(Cl)c4)c3)cc2-c2ccncc2)c1	94.1%

test system: NCI-H23; test: Growth inhibition of human NCI-H23 cells assessed as cell growth at 10 uM incubated for 48 hrs by sulforhodamine B assay relative to control; type: functional; details: NCI-H23, 48 h, read-out: Activity

Structure (SMILES)	growth at 10 µM
COc1cc(Cl)cc(-c2nn(-c3cccc(NC(=O)c4ccc(Cl)c(Cl)c4)c3)cc2-c2ccncc2)c1	75.2%

test system: COLO 205; test: Growth inhibition of human COLO205 cells assessed as cell growth at 10 uM incubated for 48 hrs by sulforhodamine B assay relative to control; type: functional; details: COLO 205, 48 h, read-out: Activity

Structure (SMILES)	growth at 10 µM
COc1cc(Cl)cc(-c2nn(-c3cccc(NC(=O)c4ccc(Cl)c(Cl)c4)c3)cc2-c2ccncc2)c1	81.5%

test system: SF-295; test: Growth inhibition of human SF295 cells assessed as cell growth at 10 uM incubated for 48 hrs by sulforhodamine B assay relative to control; type: functional; details: SF-295, 48 h, read-out: Activity

Structure (SMILES)	growth at 10 µM
COc1cc(Cl)cc(-c2nn(-c3cccc(NC(=O)c4ccc(Cl)c(Cl)c4)c3)cc2-c2ccncc2)c1	36.1%

test system: SF-268; test: Growth inhibition of human SF268 cells assessed as cell growth at 10 uM incubated for 48 hrs by sulforhodamine B assay relative to control; type: functional; details: SF-268, 48 h, read-out: Activity

Structure (SMILES)	growth at 10 µM
COc1cc(Cl)cc(-c2nn(-c3cccc(NC(=O)c4ccc(Cl)c(Cl)c4)c3)cc2-c2ccncc2)c1	82.4%

test system: A549; test: Growth inhibition of human A549/ATCC cells assessed as cell growth at 10 uM incubated for 48 hrs by sulforhodamine B assay relative to control; type: functional; details: A549, 48 h, read-out: Activity

Structure (SMILES)	growth at 10 µM
COc1cc(Cl)cc(-c2nn(-c3cccc(NC(=O)c4ccc(Cl)c(Cl)c4)c3)cc2-c2ccncc2)c1	59.7%

test system: OVCAR-5; test: Growth inhibition of human OVCAR5 cells assessed as cell growth at 10 uM incubated for 48 hrs by sulforhodamine B assay relative to control; type: functional; details: OVCAR-5, 48 h, read-out: Activity

Structure (SMILES)	growth at 10 µM
COc1cc(Cl)cc(-c2nn(-c3cccc(NC(=O)c4ccc(Cl)c(Cl)c4)c3)cc2-c2ccncc2)c1	79.2%

test system: HCT-15; test: Growth inhibition of human HCT15 cells assessed as cell growth at 10 uM incubated for 48 hrs by sulforhodamine B assay relative to control; type: functional; details: HCT-15, 48 h, read-out: Activity

Structure (SMILES)	growth at 10 µM
COc1cc(Cl)cc(-c2nn(-c3cccc(NC(=O)c4ccc(Cl)c(Cl)c4)c3)cc2-c2ccncc2)c1	57.9%

test system: RPMI-8226; test: Growth inhibition of human RPMI8226 cells assessed as cell growth at 10 uM incubated for 48 hrs by sulforhodamine B assay relative to control; type: functional; details: RPMI-8226, 48 h, read-out: Activity

Structure (SMILES)	growth at 10 µM
COc1cc(Cl)cc(-c2nn(-c3cccc(NC(=O)c4ccc(Cl)c(Cl)c4)c3)cc2-c2ccncc2)c1	46%

test system: M14; test: Growth inhibition of human M14 cells assessed as cell growth at 10 uM incubated for 48 hrs by sulforhodamine B assay relative to control; type: functional; details: M14, 48 h, read-out: Activity

Structure (SMILES)	growth at 10 µM
COc1cc(Cl)cc(-c2nn(-c3cccc(NC(=O)c4ccc(Cl)c(Cl)c4)c3)cc2-c2ccncc2)c1	68.9%

test system: PC-3; test: Growth inhibition of human PC3 cells assessed as cell growth at 10 uM incubated for 48 hrs by sulforhodamine B assay relative to control; type: functional; details: PC-3, 48 h, read-out: Activity

Structure (SMILES)	growth at 10 µM
COc1cc(Cl)cc(-c2nn(-c3cccc(NC(=O)c4ccc(Cl)c(Cl)c4)c3)cc2-c2ccncc2)c1	34%

test system: U-251; test: Growth inhibition of human U251 cells assessed as cell growth at 10 uM incubated for 48 hrs by sulforhodamine B assay relative to control; type: functional; details: U-251, 48 h, read-out: Activity

Structure (SMILES)	growth at 10 µM
COc1cc(Cl)cc(-c2nn(-c3cccc(NC(=O)c4ccc(Cl)c(Cl)c4)c3)cc2-c2ccncc2)c1	64.1%

test system: SF-539; test: Growth inhibition of human SF539 cells assessed as cell growth at 10 uM incubated for 48 hrs by sulforhodamine B assay relative to control; type: functional; details: SF-539, 48 h, read-out: Activity

Structure (SMILES)	growth at 10 µM
COc1cc(Cl)cc(-c2nn(-c3cccc(NC(=O)c4ccc(Cl)c(Cl)c4)c3)cc2-c2ccncc2)c1	74.5%

test system: OVCAR-4; test: Growth inhibition of human OVCAR4 cells assessed as cell growth at 10 uM incubated for 48 hrs by sulforhodamine B assay relative to control; type: functional; details: OVCAR-4, 48 h, read-out: Activity

Structure (SMILES)	growth at 10 µM
COc1cc(Cl)cc(-c2nn(-c3cccc(NC(=O)c4ccc(Cl)c(Cl)c4)c3)cc2-c2ccncc2)c1	58.6%

test system: NCI-H322M; test: Growth inhibition of human NCI-H322M cells assessed as cell growth at 10 uM incubated for 48 hrs by sulforhodamine B assay relative to control; type: functional; details: read-out: Activity

Structure (SMILES)	growth at 10 µM
COc1cc(Cl)cc(-c2nn(-c3cccc(NC(=O)c4ccc(Cl)c(Cl)c4)c3)cc2-c2ccncc2)c1	84.5%

test system: SK-MEL-28; test: Growth inhibition of human SK-MEL-28 cells assessed as cell growth at 10 uM incubated for 48 hrs by sulforhodamine B assay relative to control; type: functional; details: SK-MEL-28, 48 h, read-out: Activity

Structure (SMILES)	growth at 10 µM
COc1cc(Cl)cc(-c2nn(-c3cccc(NC(=O)c4ccc(Cl)c(Cl)c4)c3)cc2-c2ccncc2)c1	87.8%

test system: SR; test: Growth inhibition of human SR cells assessed as cell growth at 10 uM incubated for 48 hrs by sulforhodamine B assay relative to control; type: functional; details: read-out: Activity

Structure (SMILES)	growth at 10 µM
COc1cc(Cl)cc(-c2nn(-c3cccc(NC(=O)c4ccc(Cl)c(Cl)c4)c3)cc2-c2ccncc2)c1	43.6%

test system: OVCAR-8; test: Growth inhibition of human OVCAR8 cells assessed as cell growth at 10 uM incubated for 48 hrs by sulforhodamine B assay relative to control; type: functional; details: OVCAR-8, 48 h, read-out: Activity

Structure (SMILES)	growth at 10 µM
COc1cc(Cl)cc(-c2nn(-c3cccc(NC(=O)c4ccc(Cl)c(Cl)c4)c3)cc2-c2ccncc2)c1	58.4%

test system: A498; test: Growth inhibition of human A498 cells assessed as cell growth at 10 uM incubated for 48 hrs by sulforhodamine B assay relative to control; type: functional; details: A498, 48 h, read-out: Activity

Structure (SMILES)	growth at 10 µM
COc1cc(Cl)cc(-c2nn(-c3cccc(NC(=O)c4ccc(Cl)c(Cl)c4)c3)cc2-c2ccncc2)c1	-0.94%

test system: KM12; test: Growth inhibition of human KM12 cells assessed as cell growth at 10 uM incubated for 48 hrs by sulforhodamine B assay relative to control; type: functional; details: KM12, 48 h, read-out: Activity

Structure (SMILES)	growth at 10 µM
COc1cc(Cl)cc(-c2nn(-c3cccc(NC(=O)c4ccc(Cl)c(Cl)c4)c3)cc2-c2ccncc2)c1	62.3%

test system: CCRF-CEM; test: Growth inhibition of human CCRF-CEM cells assessed as cell growth at 10 uM incubated for 48 hrs by sulforhodamine B assay relative to control; type: functional; details: read-out: Activity

Structure (SMILES)	growth at 10 µM
COc1cc(Cl)cc(-c2nn(-c3cccc(NC(=O)c4ccc(Cl)c(Cl)c4)c3)cc2-c2ccncc2)c1	59.2%

test system: HCC 2998; test: Growth inhibition of human HCC2998 cells assessed as cell growth at 10 uM incubated for 48 hrs by sulforhodamine B assay relative to control; type: functional; details: HCC 2998, 48 h, read-out: Activity

Structure (SMILES)	growth at 10 µM
COc1cc(Cl)cc(-c2nn(-c3cccc(NC(=O)c4ccc(Cl)c(Cl)c4)c3)cc2-c2ccncc2)c1	77.8%

test system: BT-549; test: Growth inhibition of human BT549 cells assessed as cell growth at 10 uM incubated for 48 hrs by sulforhodamine B assay relative to control; type: functional; details: BT-549, 48 h, read-out: Activity

Structure (SMILES)	growth at 10 µM
COc1cc(Cl)cc(-c2nn(-c3cccc(NC(=O)c4ccc(Cl)c(Cl)c4)c3)cc2-c2ccncc2)c1	85.2%

test system: SK-MEL-5; test: Growth inhibition of human SK-MEL-5 cells assessed as cell growth at 10 uM incubated for 48 hrs by sulforhodamine B assay relative to control; type: functional; details: SK-MEL-5, 48 h, read-out: Activity

Structure (SMILES)	growth at 10 µM
COc1cc(Cl)cc(-c2nn(-c3cccc(NC(=O)c4ccc(Cl)c(Cl)c4)c3)cc2-c2ccncc2)c1	78.5%

test system: MCF7; test: Growth inhibition of human MCF7 cells assessed as cell growth at 10 uM incubated for 48 hrs by sulforhodamine B assay relative to control; type: functional; details: MCF7, 48 h, read-out: Activity

Structure (SMILES)	growth at 10 µM
COc1cc(Cl)cc(-c2nn(-c3cccc(NC(=O)c4ccc(Cl)c(Cl)c4)c3)cc2-c2ccncc2)c1	57.7%

test system: Malme-3M; test: Growth inhibition of human MALME-3M cells assessed as cell growth at 10 uM incubated for 48 hrs by sulforhodamine B assay relative to control; type: functional; details: read-out: Activity

Structure (SMILES)	growth at 10 µM
COc1cc(Cl)cc(-c2nn(-c3cccc(NC(=O)c4ccc(Cl)c(Cl)c4)c3)cc2-c2ccncc2)c1	96.4%
